From US11578069B2, “Compounds for inhibition of α4 β7 integrin” (Gilead Sciences, Inc., priority 2019, dated 2023)

Columns and labels:
α4β7 integrin = biological target: T1, α4β7 integrin (Homo sapiens, UniProt P13612+P26010); assay: α4β7 Integrin Cell Capture Assay; format: cell-based; details: capture of α4β7 integrin expressing RPM18866 cells on MadCAM-1 extracellular domain-coated plate
T1 construct: monitoring the capture of α4β7 integrin expressing cells; endogenous in cells; host or cells: RPMI8866
T1 sequence (P13612 34-1032): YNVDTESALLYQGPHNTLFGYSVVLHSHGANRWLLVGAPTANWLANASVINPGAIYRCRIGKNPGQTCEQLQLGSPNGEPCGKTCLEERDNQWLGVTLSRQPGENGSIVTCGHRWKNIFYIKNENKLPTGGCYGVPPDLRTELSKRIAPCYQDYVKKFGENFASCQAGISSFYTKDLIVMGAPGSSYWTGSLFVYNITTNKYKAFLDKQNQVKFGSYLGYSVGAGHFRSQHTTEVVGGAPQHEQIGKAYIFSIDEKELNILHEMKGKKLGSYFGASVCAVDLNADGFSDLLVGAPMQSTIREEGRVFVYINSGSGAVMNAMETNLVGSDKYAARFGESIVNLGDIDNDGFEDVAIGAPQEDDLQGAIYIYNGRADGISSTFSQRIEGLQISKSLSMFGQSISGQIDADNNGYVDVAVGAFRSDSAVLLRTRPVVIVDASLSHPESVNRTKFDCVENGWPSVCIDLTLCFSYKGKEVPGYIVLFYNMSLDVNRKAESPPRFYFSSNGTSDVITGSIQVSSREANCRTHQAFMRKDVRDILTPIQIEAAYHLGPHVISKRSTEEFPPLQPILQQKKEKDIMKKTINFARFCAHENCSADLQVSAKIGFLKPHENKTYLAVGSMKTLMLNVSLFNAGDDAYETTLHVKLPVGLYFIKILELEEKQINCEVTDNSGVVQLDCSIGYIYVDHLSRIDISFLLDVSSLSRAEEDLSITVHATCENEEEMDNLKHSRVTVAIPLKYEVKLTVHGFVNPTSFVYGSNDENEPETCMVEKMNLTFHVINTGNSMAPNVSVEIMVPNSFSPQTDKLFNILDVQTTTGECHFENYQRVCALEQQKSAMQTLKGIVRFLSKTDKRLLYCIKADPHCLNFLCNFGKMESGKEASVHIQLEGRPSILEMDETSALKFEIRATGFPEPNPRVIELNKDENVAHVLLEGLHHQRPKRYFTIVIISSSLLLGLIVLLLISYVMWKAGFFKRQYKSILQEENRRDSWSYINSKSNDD
T1 sequence (P26010 20-798): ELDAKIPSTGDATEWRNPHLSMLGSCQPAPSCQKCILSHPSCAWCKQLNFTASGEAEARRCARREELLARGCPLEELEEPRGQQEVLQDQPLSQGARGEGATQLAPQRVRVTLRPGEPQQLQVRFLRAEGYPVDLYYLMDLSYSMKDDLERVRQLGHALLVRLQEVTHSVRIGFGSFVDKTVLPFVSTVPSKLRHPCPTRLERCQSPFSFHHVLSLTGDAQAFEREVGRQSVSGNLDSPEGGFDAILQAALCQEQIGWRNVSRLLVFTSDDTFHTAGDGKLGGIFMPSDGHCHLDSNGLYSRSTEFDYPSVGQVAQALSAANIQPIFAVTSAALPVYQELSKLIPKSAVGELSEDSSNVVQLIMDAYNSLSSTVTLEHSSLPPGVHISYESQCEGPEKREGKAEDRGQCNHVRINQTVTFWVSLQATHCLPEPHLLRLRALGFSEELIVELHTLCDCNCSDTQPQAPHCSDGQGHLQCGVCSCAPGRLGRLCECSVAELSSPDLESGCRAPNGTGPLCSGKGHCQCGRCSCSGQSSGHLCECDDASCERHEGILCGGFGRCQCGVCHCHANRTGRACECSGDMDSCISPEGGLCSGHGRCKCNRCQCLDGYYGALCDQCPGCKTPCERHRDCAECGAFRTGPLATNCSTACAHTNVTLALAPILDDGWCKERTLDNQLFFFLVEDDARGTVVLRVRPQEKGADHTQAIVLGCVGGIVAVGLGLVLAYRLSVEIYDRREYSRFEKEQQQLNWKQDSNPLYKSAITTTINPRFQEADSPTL
Protocol: The potency of inhibitors in preventing α4β7 integrin interaction with MadCAM-1 was measured by monitoring the capture of α4β7 integrin expressing cells on a recombinant MadCAM-1 extracellular domain-coated plate.
384-well plates (Corning 3702) were coated with MadCAM-1 extracellular domain by dispensing 20 μL of MAdCAM-1 at 1.0 μg/mL per well and incubating overnight at 4° C. The plates were then washed with PBS and blocked with 3% BSA for 2 hours before being washed again.
(§1) RPM18866 cells were spun down and re-suspended in assay medium (DMEM+0.5% FBS+0.5 mM MnCl2) at a density of 0.5×10^6 cells/mL. The cells were then dispensed (60 μL/well) to a 384-well plate (Greiner 781280) that was previously spotted with 60 nL of test compound per well. The plates were incubated at 37° C. for 1 hour. 50 μL of cells were transferred to the blocked, MadCAM-1-coated plates and incubated for 30 minutes at 37° C. 10 μL of 12% glutaraldehyde containing Hoechst 33342 (0.06 mg/mL) was added to the cells (2% glutaraldehyde and 0.01 mg/mL final concentrations). The plates were incubated for 90 minutes at room temperature. The plates were then washed 3 times with 70 μL of PBS per well and imaged on a Cellomics ArrayScan instrument. The cells that were bound to the plate were counted and plotted against the compound concentration to determine the EC50 of the test compounds.

α4β1 integrin = biological target: T2, α4β1 integrin (Homo sapiens, UniProt P05556+P13612); assay: α4β1 Cell Capture Assay; format: cell-based; details: capture of α4β1 expressing Jurkat cells on VCAM-1 extracellular domain-coated plate
T2 construct: monitoring the capture of α4β1 expressing cells; endogenous in cells; host or cells: Jurkat
Protocol: The potency of inhibitors in preventing α4β1 integrin interaction with VCAM-1 was measured by monitoring the capture of α4β1 expressing cells to a recombinant VCAM-1 extracellular domain-coated plate.
384-well plates (Corning 3702) were coated with VCAM-1 extracellular domain by dispensing 20 μL of VCAM-1 at 0.5 μg/ml per well and incubating overnight at 4° C. The plates were then washed with PBS and blocked with 3% BSA for 2 hours before being washed again.
as §1, with “Jurkat cells” for “RPM18866 cells”, “0.5×10^6 cells/ml.” for “0.5×10^6 cells/mL.”, “blocked, VCAM-1-coated” for “blocked, MadCAM-1-coated”, “10 μl” for “10 μL”, “0.01 mg/ml Hoechst 33342” for “0.01 mg/mL”

T2 sequence (P05556 21-798, one chain of several): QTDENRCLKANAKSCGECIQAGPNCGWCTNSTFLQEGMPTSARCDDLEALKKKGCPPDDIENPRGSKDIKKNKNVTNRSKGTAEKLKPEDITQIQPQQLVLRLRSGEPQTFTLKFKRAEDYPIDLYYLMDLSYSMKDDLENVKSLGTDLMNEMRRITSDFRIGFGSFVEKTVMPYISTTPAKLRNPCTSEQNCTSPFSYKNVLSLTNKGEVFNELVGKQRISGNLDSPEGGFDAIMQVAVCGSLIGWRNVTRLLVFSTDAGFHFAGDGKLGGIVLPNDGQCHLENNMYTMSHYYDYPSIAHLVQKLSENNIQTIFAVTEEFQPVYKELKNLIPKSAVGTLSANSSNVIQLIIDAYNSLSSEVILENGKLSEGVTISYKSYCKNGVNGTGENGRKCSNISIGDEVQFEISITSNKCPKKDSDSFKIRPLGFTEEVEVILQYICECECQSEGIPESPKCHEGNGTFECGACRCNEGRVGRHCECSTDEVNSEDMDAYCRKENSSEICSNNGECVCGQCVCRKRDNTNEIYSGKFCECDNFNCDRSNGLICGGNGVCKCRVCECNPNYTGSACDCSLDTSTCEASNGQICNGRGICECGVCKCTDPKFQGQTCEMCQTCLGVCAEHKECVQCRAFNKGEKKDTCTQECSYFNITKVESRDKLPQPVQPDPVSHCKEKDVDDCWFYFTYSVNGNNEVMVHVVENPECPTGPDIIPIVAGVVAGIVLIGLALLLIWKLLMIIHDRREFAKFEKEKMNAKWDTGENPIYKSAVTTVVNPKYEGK

SMILES	EC50 (α4β7 integrin; Table 2) [nM]	EC50 (α4β1 integrin; Table 2) [nM]	EC50 (α4β7 integrin; Table 1) [nM]	EC50 (α4β1 integrin; Table 1) [nM]
Cc1c(-c2ccc(C[C@H](NC(=O)c3c(F)cc(N4CCOC[C@@H]4C(F)(F)F)cc3F)C(=O)O)cc2)c(=O)n(C)c(=O)n1C [Example 37]	0.4	9.8	–	–
Cc1nc(-c2ccc(C[C@H](NC(=O)c3c(F)cc(N4CCOC[C@@H]4C(F)(F)F)cc3F)C(=O)O)cc2)c(=O)n(C)c1C [Example 38]	4.9	86.1	–	–
Cc1cc(C[C@H](NC(=O)c2c(F)cc(N3CCOC[C@@H]3C(F)(F)F)cc2F)C(=O)O)ccc1-c1c(C)n(C)c(=O)n(C)c1=O [Example 39]	0.4	12.8	–	–
Cc1cc(C[C@H](NC(=O)c2c(C)cc(N3CCOC[C@@H]3C(F)(F)F)cc2F)C(=O)O)ccc1-c1nc(C)c(C)n(C)c1=O [Example 42]	0.3	5.8	–	–
CC[C@@H](Nc1cc(F)c(C(=O)N[C@@H](Cc2ccc(-n3c(=O)cc(C)n(C)c3=O)nc2)C(=O)O)c(F)c1)C(F)(F)F [Example 43]	15.9	661	–	–
COc1cc(C[C@H](NC(=O)c2c(F)cc(N3CCOC[C@@H]3C(F)(F)F)cc2F)C(=O)O)ccc1-n1c(=O)c2ccncc2n(C)c1=O [Example 53]	0.2	18.6	–	–
Cc1cc(N2CCOC[C@@H]2CC(F)F)cc(F)c1C(=O)N[C@@H](Cc1ccc(-n2c(=O)c3c(n(C)c2=O)CCOC3)cc1)C(=O)O [Example 57, (S)-2-(4-((S)-3-(2,2-difluoroethyl)morpholino)-2-fluoro-6-methylbenzamido)-3-(4-(1-methyl-2,4-dioxo-1,5,7,8-tetrahydro-2H-pyrano[4,3-d]pyrimidin-3(4H)-yl)phenyl)propanoic acid]	–	–	0.2	2.8
Cc1cc(N2CCOC[C@@H]2C(F)(F)F)cc(F)c1C(=O)N[C@@H](Cc1ccc(-n2c(=O)c3c(n(C)c2=O)CCOC3)cc1)C(=O)O [Example 59, (S)-2-(2-fluoro-6-methyl-4-((R)-3-(trifluoromethyl)morpholino)benzamido)-3-(4-(1-methyl-2,4-dioxo-1,5,7,8-tetrahydro-2H-pyrano[4,3-d]pyrimidin-3(4H)-yl)phenyl)propanoic acid]	–	–	0.1	2.9
Cc1cc(N2CCOC[C@@H]2C(F)(F)F)cc(F)c1C(=O)N[C@@H](Cc1ccc(-n2c(=O)c3c(n(C)c2=O)COCC3)cc1)C(=O)O [Example 63, (S)-2-(2-fluoro-6-methyl-4-((R)-3-(trifluoromethyl)morpholino)benzamido)-3-(4-(1-methyl-2,4-dioxo-1,2,4,5,6,8-hexahydro-3H-pyrano[3,4-d]pyrimidin-3-yl)phenyl)propanoic acid]	–	–	0.1	3.7

Next, values leading:

EC50 (α4β7 integrin; Table 2) [nM]	EC50 (α4β1 integrin; Table 2) [nM]	EC50 (α4β7 integrin; Table 1) [nM]	EC50 (α4β1 integrin; Table 1) [nM]	SMILES
0.3	7.7	–	–	Cc1cc(C[C@H](NC(=O)c2c(C)cc(N3CCOC[C@@H]3C(F)(F)F)cc2F)C(=O)O)ccc1-c1c(C)nc(C)n(C)c1=O [Example 40]
2.9	37.6	–	–	CC[C@@H](Nc1cc(F)c(C(=O)N[C@@H](Cc2ccc(-c3c(C)c4cc(F)ccc4n(C)c3=O)nc2)C(=O)O)c(F)c1)C(F)(F)F [Example 44]
–	–	0.1	3.4	Cn1c(=O)n(-c2ccc(C[C@H](NC(=O)c3c(F)cc(N4CCOC[C@@H]4C(F)(F)F)cc3Cl)C(=O)O)cn2)c(=O)c2ccncc21 [Example 55, (S)-2-(2-chloro-6-fluoro-4-((R)-3-(trifluoromethyl)morpholino)benzamido)-3-(6-(1-methyl-2,4-dioxo-1,4-dihydropyrido[3,4-d]pyrimidin-3(2H)-yl)pyridin-3-yl)propanoic acid]
–	–	0.4	11.5	Cn1c2c(c(=O)n(-c3ccc(C[C@H](NC(=O)c4c(F)cc(N5CCOC[C@@H]5C(F)(F)F)cc4F)C(=O)O)cc3)c1=O)CCOC2 [Example 61, (S)-2-(2,6-difluoro-4-((R)-3-(trifluoromethyl)morpholino)benzamido)-3-(4-(1-methyl-2,4-dioxo-1,2,4,5,6,8-hexahydro-3H-pyrano[3,4-d]pyrimidin-3-yl)phenyl)propanoic acid]
–	–	0.1	1.8	Cc1cc(N2CCOC[C@@H]2C(F)(F)F)cc(F)c1C(=O)N[C@@H](Cc1ccc(-n2c(=O)c3c(n(C)c2=O)CCC3)cc1)C(=O)O [Example 64, (S)-2-(2-fluoro-6-methyl-4-((R)-3-(trifluoromethyl)morpholino)benzamido)-3-(4-(1-methyl-2,4-dioxo-1,2,4,5,6,7-hexahydro-3H-cyclopenta[d]pyrimidin-3-yl)phenyl)propanoic acid]
–	–	0.1	4.8	Cc1cc(N2CCOC[C@@H]2C(F)(F)F)cc(F)c1C(=O)N[C@@H](Cc1ccc(-n2c(=O)c3c(n(C)c2=O)COC3)cc1)C(=O)O [Example 66, (S)-2-(2-fluoro-6-methyl-4-((R)-3-(trifluoromethyl)morpholino)benzamido)-3-(4-(1-methyl-2,4-dioxo-1,2,5,7-tetrahydrofuro[3,4-d]pyrimidin-3(4H)-yl)phenyl)propanoic acid]
